The results in this text go back to PubChem BioAssay (NCI).

SMILES strings stand for the structures. Where “and” joins values, the source holds several entries; their conditions need not be identical. Identical values can stand only once.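 How tested: cells in 96-well plates exposed to compound for 48 hours at five concentrations. At the GI50, growth is halved. TGI marks complete inhibition of growth.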

Assay in all cases: DTP human tumour cell line panel, 48 h
In assay [1] the test system is A549 NSCLC.
In assay [2] the test system is HCC-2998 colon.
For assay [3], the system named is HL-60(TB) leukemia.
Assay [4] deals with HOP-62 NSCLC.
Assay [5] relates to HT29 colon.
The test system of assay [6] is MDA-MB-435.
Assay [7] has as its system SK-MEL-5 melanoma.
In assay [8] the test system is SN12C renal.
In assay [9] the test system is TK-10 renal.
Assay [10] relates to UO-31 renal.

As usually defined, the GI50 is the concentration giving 50% growth inhibition. What is called TGI is the concentration giving total growth inhibition. A lower TGI goes with greater sensitivity of the cells. As to `Cc1cc(-c2nnc(N)nc2-c2ccc(F)cc2)cc(Cl)n1`, the GI50 in assay [1] was over 100 µM; in [2] it was over 100 µM; in assay [3], 33.6 µM; in assay [4], over 100 µM; in assay [5], over 100 µM; in assay [6], over 100 µM. Besides, the GI50 is 25.5 µM in [7], over 100 µM in [8], 42.6 µM in [9] and 24.3 µM in assay [10]. Further, the TGI in assay [1], in assay [2], in [3], in [4], in assay [5] and in [6] was over 100 µM each time. Further, the TGI in assay [7], in [8], in assay [9] and in [10] was over 100 µM each time.

In the case of `COc1ccc2c(CN3CCC[C@H]3C(=O)O)cc3cc4c(cc3c2c1)OCO4`, the GI50 was 21.5 µM in assay [1]; 14.5 µM in [2]; 22.9 µM in assay [3]; 19.4 µM in [4]; 8.46 µM in [5]; 14.7 µM in [6]. In addition, the GI50 in assay [7] is 12.2 µM; in assay [8] it was 6.04 µM; in [9] it was 14.7 µM; in assay [10], 17 µM. The TGI was over 100 µM in [1]; 33.7 µM in assay [2]; 67.8 µM in [3]; 86.1 µM in assay [4]; 62 µM in assay [5]; 30.4 µM in [6]. Besides, the TGI is 34.2 µM in assay [7], 73.2 µM in assay [8], 67.4 µM in assay [9] and over 100 µM in assay [10].

For `C=C1C(=O)[C@@]23CC1C(O)[C@@H](OC(C)=O)[C@@H]2C1(C)C(OC(C)=O)C[C@@H](OC(C)=O)C(C)(C)[C@@H]1C[C@H]3OC(C)=O` (stereo not given in full), the GI50 in [1] is > 10 µM and 13.9 µg/mL; in [2], 17.3 µg/mL; in assay [3] it was 1.89 µM and 0.529 µg/mL; in assay [4], 19.2 µg/mL; in assay [5], 6.13 µM and 2.61 µg/mL; in assay [6], 2.88 µg/mL. Besides, the GI50 in assay [7] was 2.69 µM and 5.05 µg/mL; in [8] it was 5.5 µg/mL; in assay [9], > 10 µM and 2.29 µg/mL; in [10], > 10 µM and 6.65 µg/mL. The TGI in [1] is > 10 µM and 30 µg/mL; in assay [2], > 10 µM and 31.3 µg/mL; in [3], 3.67 µM and 3 µg/mL; in assay [4], > 10 µM and 34.9 µg/mL; in [5] it was > 10 µM and 7.22 µg/mL; in [6], 9.51 µg/mL. Also, the TGI in assay [7] is 9.01 µM and 16.5 µg/mL; in assay [8], > 10 µM and 17 µg/mL; in assay [9] it was > 10 µM and 5.15 µg/mL; in assay [10] it was > 10 µM and 16.3 µg/mL.

In the case of `O=P([O-])(O)OP(=O)([O-])O.[NH-][C@@H]1CCCC[C@H]1[NH-].[Pt+4]`, the GI50 in assay [1] was 10 µM; in [2] it was 81 µM and 10.6 µM; in assay [3], over 70.2 µM; in [4], > 95.5 µM and 13.2 µM; in [5], 5.67 µM and 3.09 µM; in assay [6], 11.8 µM and 4.04 µM. For the same molecule, the GI50 in assay [8] is 17.6 µM and 8.78 µM; in assay [9] it was 52.4 µM; in assay [10], 32.2 µM and 4.83 µM. In addition, the TGI in [1] is over 100 µM; in [2] it was > 100 µM and 64.5 µM; in assay [3], over 100 µM; in assay [4], over 100 µM; in assay [5], over 100 µM; in assay [6] it was > 100 µM and 27.4 µM. In addition, the TGI is > 100 µM and 14.9 µM in [7]; over 100 µM in assay [8]; over 100 µM in assay [9]; > 100 µM and 30.5 µM in assay [10].

On to `COc1cc(C(c2cc3c(cc2O)OCO3)N2CCCCC2)cc(OC)c1OC` (stereo not given), for which the TGI in [1] was 45.8 µM; in [2] it was 39 µM; in [3], 4.16 µM; in assay [4], over 70.9 µM; in [5], 33.3 µM; in assay [6] it was 16.8 µM. In addition, the TGI in assay [7] turned out to be 34.6 µM; in assay [8], 25.1 µM; in assay [9], 31.2 µM; in assay [10], 28.3 µM.

Regarding `C=CCN1C=CC(=O)[C@H](O[Si](C)(C)C(C)(C)C)[C@@H]1/C=C/c1ccccc1`, the GI50 in assay [1] was 16.8 µM; in assay [2] it was 16.2 µM; in [3], 3.36 µM; in [4] it was 15.1 µM; in assay [5] it was 5.39 µM; in [6] it was 12.3 µM. Also, the GI50 in assay [7] is 7.33 µM; in assay [8], 13.8 µM; in assay [9] it was 14 µM; in [10], 9.19 µM. For the same molecule, the TGI came out at 50.3 µM in assay [1]; 30.3 µM in assay [2]; 20.2 µM in [3]; 28.9 µM in assay [4]; 19 µM in [5]; 30.6 µM in assay [6]. For the same molecule, the TGI came to 20 µM in assay [7], 27.3 µM in assay [8], 28.5 µM in assay [9] and 25.1 µM in assay [10].

Turning to `COc1cc2c(Oc3ccc4[nH]c(C)cc4c3F)ccnc2cc1OCC1(N)CC1`, the GI50 was 2.36 µM in assay [2]; 0.382 µM in assay [3]; 1.59 µM in assay [4]; 0.874 µM in assay [5]; 0.31 µM in assay [6]; 0.967 µM in [7]. Further, the GI50 in [8] was 1.78 µM; in assay [9], 7.89 µM; in assay [10], 0.864 µM. In addition, the TGI in assay [2] worked out at 11.8 µM; in [3] it was 1.95 µM; in assay [4], 35.6 µM; in [5], 3.3 µM; in assay [6], 1.21 µM; in [7], 2.24 µM. For the same molecule, the TGI in assay [8] was 7.56 µM; in [9], 26.2 µM; in assay [10], 3.69 µM.

As to `C=CCN(CC=C)C(=O)c1cc(C)nc2c1c(=O)n(-c1ccccc1)c(=O)n2CC(O)CN1CCN(c2ncccn2)CC1` (stereo not given), the GI50 in assay [2] was over 100 µM; in assay [3], over 100 µM; in assay [4], 21.1 µM; in [5] it was over 100 µM; in assay [6] it was over 100 µM; in [7], over 100 µM. The GI50 in [8], in assay [9] and in assay [10] was over 100 µM each time. The TGI in assay [2], in assay [3], in assay [4], in [5], in assay [6] and in [7] was over 100 µM in each case. Besides, the TGI in assay [8], in assay [9] and in [10] was over 100 µM each time.
